This note sets out measurements from PubChem BioAssay (NCI).

Where “and” joins values, the source holds several entries; their conditions need not be identical. Identical values can stand only once.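 Cells were grown in 96-well plates and exposed to each compound for 48 hours at five concentrations; endpoints were interpolated linearly between bracketing concentrations, or set to the highest concentration if not reached. At the GI50, growth is halved. At the TGI there is no net growth.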

Test systems include TK-10 renal; ACHN renal; LOX IMVI melanoma; NCI-H226 lung; OVCAR-3 ovarian; T-47D breast; A498 renal; SR leukemia; UO-31 renal; SK-MEL-5 melanoma.
Common to all, as to assay: inhibition of tumour cell growth, NCI panel, 48 h

With `CCCCCC(=O)OCC(=O)O[C@@H]1C[C@]2(C(C)C)O[C@@]1(C)[C@@H]1CC[C@@H](C)[C@H]1[C@@H]2OC(=O)/C=C/c1ccccc1`, the GI50 in the test on TK-10 renal was greater than 51.1 µM; with ACHN renal, 0.0387 µM; with LOX IMVI melanoma, greater than 49.9 µM; with NCI-H226 lung, 50.6 µM; in the test on OVCAR-3 ovarian, greater than 46.6 µM; in the test with T-47D breast, 10 µM. Besides, the GI50 is 0.0525 µM with A498 renal, 19.7 µM in the test with SR leukemia, 0.0408 µM with UO-31 renal and 42.5 µM in the test with SK-MEL-5 melanoma. Also, the TGI is greater than 93.5 µM in the test with TK-10 renal; 10.1 µM in the test with ACHN renal; greater than 72.6 µM with LOX IMVI melanoma; greater than 100 µM with NCI-H226 lung; greater than 67.3 µM in the test with OVCAR-3 ovarian; greater than 92.7 µM in the test on T-47D breast. The TGI in the test with A498 renal was 0.306 µM; in the test on SR leukemia it was greater than 100 µM; in the test with UO-31 renal, 0.254 µM; with SK-MEL-5 melanoma, greater than 77.4 µM.
As for `O=C(c1ccco1)c1c(C(F)(F)F)nc2cc(C(F)(F)F)ccc2[n+]1[O-]`, the GI50 with TK-10 renal was 28.6 µM; in the test with ACHN renal, 82.1 µM; in the test with LOX IMVI melanoma, 48.1 µM; in the test on NCI-H226 lung, greater than 100 µM; in the test on OVCAR-3 ovarian, 37.8 µM; in the test with T-47D breast, 18.9 µM. For the same molecule, the GI50 was 20.5 µM in the test on A498 renal, 33.7 µM in the test on SR leukemia, 66.9 µM in the test on UO-31 renal and greater than 100 µM in the test on SK-MEL-5 melanoma. Also, the TGI in the test on TK-10 renal was greater than 100 µM; in the test with ACHN renal it was greater than 100 µM; in the test on LOX IMVI melanoma it was greater than 100 µM; with NCI-H226 lung it was greater than 100 µM; in the test with OVCAR-3 ovarian it was greater than 100 µM; with T-47D breast it was 49.6 µM. The TGI is 63.8 µM with A498 renal, greater than 100 µM in the test on SR leukemia, greater than 100 µM with UO-31 renal and greater than 100 µM with SK-MEL-5 melanoma.
Consider `COc1cc(-c2nc(SCC(=O)Nc3ccc(C(C)=O)cc3)[nH]c(=O)c2C#N)cc(OC)c1OC`, for which the GI50 in the test with TK-10 renal was 96.9 µM; with ACHN renal, 85 µM; in the test with LOX IMVI melanoma it was 41.7 µM; with NCI-H226 lung, 89.8 µM; in the test with OVCAR-3 ovarian, 34 µM; in the test with T-47D breast, 34 µM. The GI50 in the test on A498 renal was 21.3 µM; in the test on SR leukemia, 19 µM; in the test with UO-31 renal it was 36.6 µM; in the test on SK-MEL-5 melanoma it was 31.9 µM. Also, the TGI in the test with TK-10 renal, in the test with ACHN renal, with LOX IMVI melanoma, in the test on NCI-H226 lung, in the test with OVCAR-3 ovarian and with T-47D breast was greater than 100 µM throughout. The TGI in the test on A498 renal was 85 µM; with SR leukemia, greater than 100 µM; in the test with UO-31 renal, greater than 100 µM; in the test with SK-MEL-5 melanoma it was greater than 100 µM.
`O=C1C=CN(C2OC(CO)C(O)C2O)C(=O)C1` (stereo not drawn): the TGI was greater than 2500 µM with TK-10 renal; greater than 2500 µM in the test on ACHN renal; 625 µM and 788 µM in the test on LOX IMVI melanoma; greater than 2500 µM with NCI-H226 lung; greater than 1870 µM with OVCAR-3 ovarian; greater than 1750 µM in the test on T-47D breast. The TGI in the test with A498 renal was greater than 2500 µM; with SR leukemia, greater than 2500 µM; in the test on UO-31 renal, 625 µM and > 2500 µM; with SK-MEL-5 melanoma it was greater than 2500 µM. The GI50 in the test with NCI-H226 lung is greater than 625 µM; with UO-31 renal it was 26.7 µM; in the test with SK-MEL-5 melanoma, > 625 µM and 325 µM.
As for `O=C(Nc1cccc2cccnc12)c1ccc(N2C(=O)[C@@H]3[C@H](C2=O)[C@@H]2C=C[C@H]3C2)cc1`, the GI50 in the test on TK-10 renal is 4.13 µM; in the test with ACHN renal, 36.4 µM; in the test on LOX IMVI melanoma it was 31.8 µM; in the test with NCI-H226 lung, 19.8 µM; in the test with OVCAR-3 ovarian it was 20.7 µM; with T-47D breast, 20.2 µM. In addition, the GI50 with A498 renal was 14.5 µM; in the test on SR leukemia, 30 µM; in the test on UO-31 renal, 3.1 µM; in the test with SK-MEL-5 melanoma, 13.4 µM. The TGI is greater than 100 µM in the test on TK-10 renal; greater than 100 µM in the test on ACHN renal; greater than 100 µM in the test on LOX IMVI melanoma; greater than 88.6 µM with NCI-H226 lung; greater than 100 µM in the test with OVCAR-3 ovarian; greater than 79.3 µM in the test on T-47D breast. Further, the TGI in the test with A498 renal was greater than 93.2 µM; in the test with SR leukemia it was greater than 100 µM; in the test with UO-31 renal, greater than 100 µM; with SK-MEL-5 melanoma it was 29.6 µM.
In the case of `COc1cc(C2CC(c3ccc4c(c3)OCO4)=NN2C(C)=O)cc(OC)c1OC` (stereo not drawn), the GI50 with TK-10 renal is 7.59 µM; in the test with ACHN renal, 3.66 µM; in the test with LOX IMVI melanoma, 1.89 µM; in the test with NCI-H226 lung it was 13.5 µM; in the test on OVCAR-3 ovarian it was 0.297 µM; in the test on T-47D breast, 1.44 µM. The GI50 with A498 renal is 0.296 µM; in the test with SR leukemia, 0.33 µM; in the test on UO-31 renal it was 3.72 µM; with SK-MEL-5 melanoma it was 0.419 µM. Also, the TGI was greater than 100 µM with TK-10 renal; greater than 100 µM with ACHN renal; greater than 100 µM in the test with LOX IMVI melanoma; greater than 100 µM with NCI-H226 lung; 0.808 µM in the test with OVCAR-3 ovarian; greater than 64.8 µM in the test on T-47D breast. The TGI was 4.75 µM with A498 renal, greater than 37 µM with SR leukemia, greater than 86.8 µM in the test with UO-31 renal and 8.07 µM in the test with SK-MEL-5 melanoma.
For `CCCC[P+](c1ccccc1)(c1ccccc1)c1ccccc1`, the GI50 was 8.29 µM with TK-10 renal; 29 µM in the test with ACHN renal; 3.01 µM in the test on LOX IMVI melanoma; 5.34 µM with NCI-H226 lung; 1.13 µM with OVCAR-3 ovarian; 0.628 µM in the test with T-47D breast. Further, the GI50 in the test with A498 renal is 3.46 µM; in the test with SR leukemia, 1.96 µM; with UO-31 renal, 24.2 µM; with SK-MEL-5 melanoma, 0.534 µM. Also, the TGI is greater than 100 µM in the test with TK-10 renal; greater than 100 µM in the test with ACHN renal; greater than 100 µM with LOX IMVI melanoma; greater than 100 µM in the test on NCI-H226 lung; 23.3 µM in the test on OVCAR-3 ovarian; greater than 100 µM in the test on T-47D breast. In addition, the TGI in the test on A498 renal is 29.5 µM; with SR leukemia it was greater than 100 µM; in the test on UO-31 renal, greater than 100 µM; in the test on SK-MEL-5 melanoma, 6.63 µM.
Consider `C#CCOc1ccc2ncnc(Nc3ccc(NC(=O)CCl)cc3)c2c1`, for which the GI50 was 13.7 µM with TK-10 renal; 11 µM in the test on ACHN renal; 1.5 µM with LOX IMVI melanoma; 17.8 µM in the test on NCI-H226 lung; 4.68 µM with OVCAR-3 ovarian; 8.4 µM in the test with T-47D breast. In addition, the GI50 was 10.6 µM in the test on A498 renal, 2.69 µM in the test with SR leukemia, 8.45 µM with UO-31 renal and 3.87 µM in the test on SK-MEL-5 melanoma. Also, the TGI with TK-10 renal was 42.7 µM; in the test on ACHN renal, 23.3 µM; with LOX IMVI melanoma, 3.43 µM; in the test on NCI-H226 lung, 68.6 µM; with OVCAR-3 ovarian, 17.2 µM; with T-47D breast, 31.9 µM. For the same molecule, the TGI in the test with A498 renal is 24 µM; in the test with SR leukemia it was 15 µM; in the test on UO-31 renal, 22.2 µM; in the test with SK-MEL-5 melanoma, 15.5 µM.
For `Oc1ccc(/C=N/Nc2nc3ccccc3s2)c(O)c1`, the GI50 in the test with TK-10 renal is 2.1 µM; with ACHN renal, 1.11 µM; with LOX IMVI melanoma it was 3.27 µM; in the test with NCI-H226 lung, 3.56 µM; in the test on OVCAR-3 ovarian it was 1.92 µM; in the test on T-47D breast, 3.37 µM. Also, the GI50 in the test with A498 renal is 4.16 µM; with SR leukemia, 1.53 µM; in the test with UO-31 renal, 0.341 µM; in the test with SK-MEL-5 melanoma, 3.37 µM. Also, the TGI with TK-10 renal was 45.2 µM; in the test with ACHN renal, 9.89 µM; in the test on LOX IMVI melanoma, 28.8 µM; in the test on NCI-H226 lung, 65.9 µM; in the test on OVCAR-3 ovarian it was 12.8 µM; in the test on T-47D breast, greater than 100 µM. The TGI in the test on A498 renal is 36.8 µM; in the test with SR leukemia, 11.4 µM; in the test on UO-31 renal it was 4.23 µM; in the test on SK-MEL-5 melanoma, greater than 100 µM.
Consider `CN(C)CCOc1nc2c3cccnc3cc(-c3cccc(Cl)c3)c2c2ncccc12`, for which the GI50 with TK-10 renal was 1.52 µM; in the test on ACHN renal, 0.698 µM; in the test with LOX IMVI melanoma it was 0.968 µM; in the test on NCI-H226 lung, 6.09 µM; in the test on OVCAR-3 ovarian, 1.52 µM; with T-47D breast, 2.16 µM. Besides, the GI50 is 2.6 µM in the test with A498 renal, 0.371 µM in the test with SR leukemia, 1.09 µM in the test with UO-31 renal and 1.78 µM in the test with SK-MEL-5 melanoma. The TGI came out at 4.04 µM in the test on TK-10 renal; 2.45 µM in the test with ACHN renal; 4.5 µM in the test with LOX IMVI melanoma; 24.6 µM in the test with NCI-H226 lung; 4.19 µM in the test with OVCAR-3 ovarian; 6.39 µM in the test on T-47D breast. Also, the TGI turned out to be 10.8 µM in the test with A498 renal, 2.15 µM in the test with SR leukemia, 2.73 µM with UO-31 renal and 3.2 µM in the test on SK-MEL-5 melanoma.
For the molecule `CCCC(=O)NC(c1ccc2c(c1)OCO2)c1ccc2cccnc2c1O` (stereo not drawn), the GI50 with TK-10 renal is 2.97 µM; in the test on ACHN renal it was 0.466 µM; in the test with LOX IMVI melanoma it was 0.808 µM; with NCI-H226 lung it was 2.21 µM; in the test on OVCAR-3 ovarian it was 0.427 µM; in the test on T-47D breast, 2.24 µM. Also, the GI50 in the test with A498 renal was 3.22 µM; in the test on SR leukemia it was 0.402 µM; in the test with UO-31 renal, 0.557 µM; in the test on SK-MEL-5 melanoma, 1.74 µM. The TGI is greater than 100 µM in the test with TK-10 renal; greater than 100 µM with ACHN renal; greater than 100 µM in the test with LOX IMVI melanoma; 8.63 µM with NCI-H226 lung; 15.4 µM with OVCAR-3 ovarian; greater than 100 µM in the test on T-47D breast. The TGI was 12.6 µM in the test on A498 renal, greater than 100 µM in the test on SR leukemia, 18.4 µM in the test with UO-31 renal and 3.9 µM with SK-MEL-5 melanoma.
